# From US9446012B2, “Pharmaceutical compounds” (BIAL-PORTELA & CA, S.A., priority 2006, dated 2016)
# Key:
# [1] = Plasma levels of L-DOPA and 3-O-methyl-L-DOPA in rats treated with L-DOPA plus benserazide; assay type: in vivo, rat; details: 3 mg/kg
# [2] = Brain levels of L-DOPA, 3-O-methyl-L-DOPA, dopamine, DOPAC and HVA in rats treated with L-DOPA plus benserazide; assay type: in vivo, rat
# liver COMT = assay: Liver COMT activity after oral administration (methylation of adrenaline to metanephrine in liver homogenates); assay type: in vivo, rat; details: FIG. 1; for inhibition of liver COMT / inhibition of liver COMT activity / time to maximal inhibitory effect on liver COMT: 3 mg/kg; for inhibition of liver COMT: 24 hours after administration; for inhibition of liver COMT activity: nine hours after administration
# [3] = Treatment of Parkinson's disease patients on L-DOPA therapy; assay type: in vivo, human; details: tablets containing 50 mg
# [4] = L-DOPA 12 mg/kg plus benserazide 3 mg/kg, all pre-treatment times (1, 7 and 24 h)
# [5] = 3 mg/kg, L-DOPA plus benserazide, all pre-treatment times (1, 7 and 24 h)
# [6] = 3 mg/kg, administered 24 h in advance
structure (smiles),measurement,setting,value
"Cc1nc(Cl)c(-c2noc(-c3cc(O)c(O)c([N+](=O)[O-])c3)n2)c(C)c1Cl [compound A, 5-[3-(2,5-dichloro-4,6-dimethylpyridin-3-yl)-[1,2,4]oxadiazol-5-yl]-3-nitrobenzene-1,2-diol]",circulating 3-O-methyl-L-DOPA,[1]; [4],marked decrease
same,plasma L-DOPA,[1]; [4],significant increases
same,brain 3-O-methyl-L-DOPA,[2]; [5],marked decrease
same,brain DOPAC,[2]; [5],significant increases
same,brain L-DOPA,[2]; [5],significant increases
same,brain dopamine,[2]; [5],significant increases
same,inhibition of liver COMT,liver COMT,60 % of control levels
same,inhibition of liver COMT activity,liver COMT,90 % of control levels
same,time to maximal inhibitory effect on liver COMT,liver COMT; oral administration,≤ 6 h
same,inhibitor of liver COMT (in words),liver COMT; oral administration,potent inhibitor
same,clinical picture,[3],significant improvement
"Cc1ccc(C(=O)c2cc(O)c(O)c([N+](=O)[O-])c2)cc1 [tolcapone, 3,4-dihydroxy-4′-methyl-5-nitrobenzophenone]",3-O-methyl-L-DOPA plasma levels,[1]; 2 and 7 h after administration,Significant changes
same,L-DOPA plasma levels,[1]; 2 and 7 h after administration,Significant changes
same,plasma levels of 3-O-methyl-L-DOPA,[1]; administered 24 h in advance,not affected
same,plasma levels of L-DOPA,[1]; administered 24 h in advance,not affected
same,brain levels of 3-O-methyl-L-DOPA,[2]; [6],not affected
same,brain levels of DOPAC,[2]; [6],not affected
same,brain levels of L-DOPA,[2]; [6],not affected
same,brain levels of dopamine,[2]; [6],not affected
same,steadiness of brain delivery of L-DOPA,"[2]; rat, in vivo",marked oscillations
same,inhibition of liver COMT,liver COMT,almost devoid of COMT inhibitory properties
same,time to maximal inhibitory effect on liver COMT,liver COMT; after administration,≤ 0.5 h
same,inhibition of liver COMT activity,liver COMT,minimal inhibitory effects
